From patent US10844023B2 (Washington University, priority 2017, dated 2020) come the findings set out here.

This experiment concerns Mfn2 null MEFs. Briefly: Mitochondrial elongation (aspect ratio) fusogenicity assay. Type of experiment: cell-based, mouse. Also on record: % long compare to B: dose or concentration left out as unconfirmed. Conditions: mitochondrial elongation relative to Cpd B (B01 = 100); Mfn2 null MEFs, compound overnight as printed (FIG. 48). An excerpt: A cultured murine embryonic fibroblast assay system was used in which mitochondrial elongation (an increase in aspect ratio) reflects enhanced mitochondrial fusion.
A pharmacophore model was generated based on the interactions of HR1 and HR2 domains in the calculated structural model of Mfn2 in the closed conformation. The key features included hydrophobic interactions involving Mfn2 HR1: Val372 and Met376, and aromatic interactions and hydrogen bonding involving Mfn2 HR1 His380. […] A library comprising ˜14 million commercially available compounds was prepared in silico and evaluated using PHASE to fit these criteria. Top ranked hits were clustered, and filtered based on pharmacological properties using Qikprop. The top 55 (see TABLE 4) commercially available small molecules conforming to the model were selected for functional screening and purchased in 1 mg aliquots. […] Images were acquired by confocal microscopy. Each compound was scored for fusogenicity (see e.g., FIG. 24A) and % cell death (see e.g., FIG. 24B).
Cells were excited with 408 nm (Hoechst), […] (MitoTracker Green and Calcein AM, GFP), or 637 nm (TMRE, MitoTracker Orange, Ethidium homodimer-1, and AF594-Dextran) laser diodes. For mitochondrial elongation studies mitochondrial aspect ratio (long axis/short axis) was calculated using automated edge detection and Image J software. Mitochondrial depolarization was calculated as % of green mitochondria visualized on MitoTracker Green and TMRE merged images, expressed as green/(green+yellow mitochondria)×100.
`CC(Sc1nnc(-c2ccco2)n1-c1ccccc1)C(=O)Nc1sc2c(c1C(N)=O)CCC2` (centres unmarked) [1-06, 2-(2-{[5-(furan-2-yl)-4-phenyl-4H-1,2,4-triazol-3-yl]sulfanyl}propana-mido)-4H,5H,6H-cyclopenta[b]thiophene-3-carboxamide]: the “% long compare to B” value is 10%.

In the case of `Cn1c(SCC(=O)Nc2sc3c(c2C(N)=O)CCC3)nnc1-c1ccc(F)cc1` [1-A3, 2-(2-{[5-(4-fluorophenyl)-4-methyl-4H-1,2,4-triazol-3-yl]sulfanyl}acetamido)-4H,5H,6H-cyclopenta[b]-thiophene-3-carboxamide], the “% long compare to B” value is given as −10%.

Regarding `CC1CCc2c(sc(NC(=O)CSc3nnc4n3CCCCC4)c2C(N)=O)C1` (centres unmarked) [1-A4, 6-methyl-2-(2-{5H,6H,7H,8H,9H-[1,2,4]triazolo[4,3-a]azepin-3-ylsulfanyl}acetamido)-4,5,6,7-tetrahydro-1-benzothiophene-3-carboxamide], the “% long compare to B” value came to 2%.

Take `NC(=O)c1c(NC(=O)CSc2nc(C3CC3)n(-c3ccccc3)n2)sc2c1CCC2` [1-A5, 2-{2-[(5-cyclopropyl-1-phenyl-1H-1,2,4-triazol-3-yl)sulfanyl]acetamido}-4H,5H,6H-cyclopenta[b]thiophene-3-carboxamide]: the “% long compare to B” value was −6%.

With `COc1ccc(-n2ccnc2SC(C)C(=O)Nc2sc3c(c2C(N)=O)CCC3)cc1` (centres unmarked) [1-A7, 2-(2-{[1-(4-methoxyphenyl)-1H-imidazol-2-yl]sulfanyl}-propanamido)-4H,5H,6H-cyclopenta[b]thiophene-3-carboxamide], the “% long compare to B” value is on record as −24%.

Regarding `CCn1c(Cc2ccccc2)nnc1SC(C)C(=O)Nc1sc2c(c1C(N)=O)CCC2` (centres unmarked) [1-A8, 2-{2-[(5-benzyl-4-ethyl-4H-1,2,4-triazol-3-yl)sulfanyl]-propanamido}-4H,5H,6H-cyclopenta[b]thiophene-3-carboxamide], the “% long compare to B” value is recorded as 47%.

Consider `NC(=O)c1c(NC(=O)CSc2nnc3n2CCCCC3)sc2c1CCC2` [1-A10, 2-(2-{5H,6H,7H,8H,9H-[1,2,4]triazolo[4,3-a]azepin-3-ylsulfanyl}acetamido)-4H,5H,6H-cyclopenta[b]thio-phene-3-carboxamide], for which the “% long compare to B” value was found to be 45%.

Consider `CC1CCc2c(sc(NC(=O)CSc3nnc(C4CC4)n3C)c2C(N)=O)C1` (centres unmarked) [1-A11, 2-{2-[(5-cyclopropyl-4-methyl-4H-1,2,4-triazol-3-yl)sulfanyl]acetamido}-6-methyl-4,5,6,7-tetrahydro-1-benzothiophene-3-carboxamide], for which the “% long compare to B” value amounted to 6%.

Regarding `CC(Sc1nnc(N2CCCCC2)n1-c1ccccc1)C(=O)Nc1sc2c(c1C(N)=O)CCC2` (centres unmarked) [1-A12, 2-(2-{[4-phenyl-5-(piperidin-1-yl)-4H-1,2,4-triazol-3-yl]sul-fanyl]propanamido)-4H,5H,6H-cyclopenta[b]thiophene-3-carboxamide], the “% long compare to B” value was −8%.

Take `CC1CCc2c(sc(NC(=O)CSc3nnc(C4CC4)n3-c3ccccc3)c2C#N)C1` (centres unmarked) [1-B2, N-(3-cyano-6-methyl-4,5,6,7-tetrahydro-1-benzothiophen-2-yl)-2-[(5-cyclopropyl-4-phenyl-4H-1,2,4-triazol-3-yl)sulfanyl]acetamide]: the “% long compare to B” value is on record as −11%.

Take `NC(=O)c1c(NC(=O)CSc2nnc(C3CC3)n2-c2ccccc2)sc2c1CCC2` [1-B3, 2-{2-[(5-cyclopropyl-4-phenyl-4H-1,2,4-triazol-3-yl)sulfanyl]acetamido}-4H,5H,6H-cyclopenta[b]thiophene-3-carboxamide]: the “% long compare to B” value is listed as 90%.

As for `Cn1c(SCC(=O)Nc2sc3c(c2C(N)=O)CCC3)nnc1C(F)(F)F` [1-B4, 2-(2-{[4-methyl-5-(trifluoro-methyl)-4H-1,2,4-triazol-3-yl]sulfanyl}acetamido)-4H,5H,6H-cyclopenta[b]-thiophene-3-carboxamide], the “% long compare to B” value is recorded as 10%.

Turning to `Cn1c(SCC(=O)Nc2sc3c(c2C(=O)NCc2ccccc2)CCCC3)nnc1C1CC1` [1-B5, N-benzyl-2-{2-[(5-cyclopropyl-4-methyl-4H-1,2,4-triazol-3-yl)sulfanyl]acetamido}-4,5,6,7-tetrahydro-1-benzothiophene-3-carboxamide], the “% long compare to B” value is on record as −31%.

Turning to `COCCNC(=O)c1c(NC(=O)CSc2nnc(C3CC3)n2C)sc2c1CCCC2` [1-B6, 2-{2-[(5-cyclopropyl-4-methyl-4H-1,2,4-triazol-3-yl)sulfanyl]acetamido}-N-(2-methoxyethyl)-4,5,6,7-tetrahydro-1-benzothiophene-3-carboxamide], the “% long compare to B” value is reported as 68%.

Regarding `CC(Sc1nnc(Cc2cccs2)n1C)C(=O)Nc1sc2c(c1C(N)=O)CCC2` (centres unmarked) [1-B7, 2-[2-({4-methyl-5-[(thiophen-2-yl)methyl]-4H-1,2,4-triazol-3-yl}sulfanyl)propanamido]-4H,5H,6H-cyclopenta[b]thio-phene-3-carboxamide], the “% long compare to B” value was 41%.

`Cc1occc1-c1nnc(SC(C)C(=O)Nc2sc3c(c2C(N)=O)CCC3)n1-c1ccccc1` (centres unmarked) [1-B8, 2-(2-{[5-(2-methylfuran-3-yl)-4-phenyl-4H-1,2,4-triazol-3-yl]sulfanyl}propanamido)-4H,5H,6H-cyclopenta[b]thio-phene-3-carboxamide]: the “% long compare to B” value came out at 20%.

For `O=C(NCCSCc1ccccc1F)NC1CCCCC1` [1-B10, 1-cyclohexyl-3-(2-{[(2-fluorophenyl)methyl]sulfanyl}ethyl)urea], the “% long compare to B” value is given as 6%.

As for `CC1CCc2c(sc(NC(=O)CSc3nc(C4CC4)n(-c4ccccc4)n3)c2C(N)=O)C1` (centres unmarked) [1-B11, 2-{2-[(5-cyclopropyl-1-phenyl-1H-1,2,4-triazol-3-yl)sulfanyl]acetamido}-6-methyl-4,5,6,7-tetrahydro-1-benzothiophene-3-carboxamide], the “% long compare to B” value was −12%.

In the case of `N#Cc1c(NC(=O)CSc2nnc(C3CC3)n2-c2ccccc2)sc2c1CCCC2` [1-C1, N-(3-cyano-4,5,6,7-tetrahydro-1-benzothiophen-2-yl)-2-[(5-cyclopropyl-4-phenyl-4H-1,2,4-triazol-3-yl)sulfanyl]acetamide], the “% long compare to B” value stood at 19%.

For the compound `Cc1nnc(SCC(=O)Nc2sc3c(c2C(N)=O)CCC3)n1Cc1ccccc1` [1-C2, 2-{2-[(4-benzyl-5-methyl-4H-1,2,4-triazol-3-yl)sulfanyl]acetamido}-4H,5H,6H-cyclopenta[b]thiophene-3-carboxamide], the “% long compare to B” value is reported as −18%.

Regarding `CC1CCc2c(sc(NC(=O)CSc3nncn3-c3ccccc3)c2C(N)=O)C1` (centres unmarked) [1-C3, 6-methyl-2-{2-[(4-phenyl-4H-1,2,4-triazol-3-yl)sulfanyl]acetamido}-4,5,6,7-tetrahydro-1-benzothiophene-3-carboxamide], the “% long compare to B” value is recorded as −9%.

For the compound `NC(=O)c1c(NC(=O)CSc2nncn2-c2ccccc2)sc2c1CCC2` [1-C4, 2-{2-[(4-phenyl-4H-1,2,4-triazol-3-yl)sulfanyl]acetamido}-4H,5H,6H-cyclopenta-[b]thiophene-3-carboxamide], the “% long compare to B” value is −13%.

For the compound `Cc1ccccc1-n1cnnc1SCC(=O)Nc1sc2c(c1C(N)=O)CCC2` [1-C5, 2-(2-{[4-(2-methylphenyl)-4H-1,2,4-triazol-3-yl]sulfanyl}acet-amido)-4H,5H,6H-cyclopenta-[b]thiophene-3-carboxamide], the “% long compare to B” value worked out at 12%.

Turning to `Cn1c(CC2CCS(=O)(=O)C2)nnc1SCC(=O)Nc1sc2c(c1C(N)=O)CCCC2` (stereo not drawn) [1-C6, 2-[2-({5-[(1,1-dioxo-1λ^6-thiolan-3-yl)methyl]-4-methyl-4H-1,2,4-triazol-3-yl}sulfanyl)-acetamido]-4,5,6,7-tetrahydro-l-benzothiophene-3-carboxamide], the “% long compare to B” value came out at 23%.

In the case of `CC(Sc1nnc(C2CC2)n1Cc1ccccc1)C(=O)Nc1sc2c(c1C(N)=O)CCC2` (centres unmarked) [1-C7, 2-{2-[(4-benzyl-5-cyclopropyl-4H-1,2,4-triazol-3-yl)sulfanyl]-propanamido}-4H,5H,6H-cyclopenta[b]thiophene-3-carboxamide], the “% long compare to B” value is reported as −9%.

For `NC(=O)c1c(NC(=O)CSc2nnc(Cc3cccs3)n2-c2ccccc2)sc2c1CCC2` [1-C8, 2-[2-({4-phenyl-5-[(thiophen-2-yl)methyl]-4H-1,2,4-triazol-3-yl}sulfanyl)acetamido]-4H,5H,6H-cyclopenta[b]thio-phene-3-carboxamide], the “% long compare to B” value was 35%.

For the compound `Cc1occc1-c1nnc(SC(C)C(=O)Nc2sc3c(c2C(N)=O)CCC3)n1C` (centres unmarked) [1-C9, 2-(2-{[4-methyl-5-(2-methylfuran-3-yl)-4H-1,2,4-triazol-3-yl]sulfanyl}propanamido)-4H,5H,6H-cyclopenta[b]thio-phene-3-carboxamide], the “% long compare to B” value was −3%.

Regarding `COC(=O)c1c(NC(=O)CSc2nnc(C)n2-c2ccccc2)sc2c1CCC2` [1-C10, methyl 2-{2-[(5-methyl-4-phenyl-4H-1,2,4-triazol-3-yl)sulfanyl]acetamido}-4H,5H,6H-cyclopenta[b]thiophene-3-carboxylate], the “% long compare to B” value is reported as 39%.

For the compound `Cn1c(Cc2cccs2)nnc1SCC(=O)Nc1sc2c(c1C(N)=O)CCC2` [1-C11, 2-[2-({4-methyl-5-[(thiophen-2-yl)methyl]-4H-1,2,4-triazol-3-yl}sulfanyl)acetamido]-4H,5H,6H-cyclopenta[b]thio-phene-3-carboxamide], the “% long compare to B” value is 1%.
